pEC50: −log10 of the molar value. Numbered stars: 1 amine (or outer) side, 2 acyl side, 3 side chain; on linkers, the order of the positions; unused ones are H or OH. Bridge positions count the residues as written; N and C are the ends. Square brackets hold non-standard residues; d marks the D form. Peptide text beside a SMILES is read from it. 3Aminoazetidine3carboxyl = O=C(C1(N[*:1])CN([*:3])C1)[*:2]; dαMeOrn(Me) = CN(CCC[C@@](C)(N[*:1])C(=O)[*:2])[*:3]; dαMeDap(Me) = CN(C[C@@](C)(N[*:1])C(=O)[*:2])[*:3]; αMeDab(Me) = CN(CC[C@](C)(N[*:1])C(=O)[*:2])[*:3]; X3 = O=C([C@@]1(N[*:1])CCN([*:3])C1)[*:2]; X1 = O=C([C@]1(N[*:1])CCN([*:3])C1)[*:2]; X2 = O=C(OCC=CCOC(=O)[*:2])[*:1]

The target of the test is T1, full-length beta-catenin (Axin site) (Homo sapiens, UniProt P35222).
T1 construct: 15 nM full-length beta-catenin, 20 nM FITC labeled peptide in buffer
T1 sequence (P35222 1-781): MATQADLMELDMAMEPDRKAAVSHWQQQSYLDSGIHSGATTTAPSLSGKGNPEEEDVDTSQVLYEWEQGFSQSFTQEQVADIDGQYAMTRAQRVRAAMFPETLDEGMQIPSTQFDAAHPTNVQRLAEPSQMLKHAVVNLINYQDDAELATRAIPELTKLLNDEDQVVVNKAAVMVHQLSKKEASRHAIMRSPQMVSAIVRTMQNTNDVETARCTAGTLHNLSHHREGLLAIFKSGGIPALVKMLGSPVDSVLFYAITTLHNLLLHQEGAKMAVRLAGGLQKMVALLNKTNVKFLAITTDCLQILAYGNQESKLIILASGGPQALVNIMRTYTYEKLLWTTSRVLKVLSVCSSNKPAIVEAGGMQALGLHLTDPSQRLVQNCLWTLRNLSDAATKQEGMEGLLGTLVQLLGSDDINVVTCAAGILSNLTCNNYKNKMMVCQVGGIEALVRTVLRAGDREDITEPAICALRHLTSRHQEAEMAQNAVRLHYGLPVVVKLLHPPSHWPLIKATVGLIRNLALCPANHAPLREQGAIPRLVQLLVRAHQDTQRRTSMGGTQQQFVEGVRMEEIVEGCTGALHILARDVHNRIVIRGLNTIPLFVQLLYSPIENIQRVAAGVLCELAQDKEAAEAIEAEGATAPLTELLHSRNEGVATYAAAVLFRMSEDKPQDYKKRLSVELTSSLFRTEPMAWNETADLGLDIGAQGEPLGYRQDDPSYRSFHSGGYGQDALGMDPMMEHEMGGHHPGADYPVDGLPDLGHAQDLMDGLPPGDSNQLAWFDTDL
Put plainly: Competition fluorescence polarization assay (Axin site probe). In kind it is binding. To be noted: competition fluorescence polarization, Table 2; read-out: in vitro FP EC50. The essentials:
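Competition FP: 15 nM full-length β-catenin pre-incubated 5 min with 20 nM FITC-labelled stapled Axin-site peptide, then titrated peptide added (3-fold series from 5 μM) for 15 min in the dark. Buffer 50 mM Tris pH 8.0, 250 mM NaCl, 2% glycerol, 0.5 mM EDTA; duplicate reads.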
For orientation: In fluorescence polarisation assays a small probe gives low polarisation when free and higher when bound to something large.
Regarding `CC[C@H](C)[C@@H]1NC(=O)[C@H](Cc2c[nH]cn2)NC(=O)[C@H](C)NC(=O)[C@H](CC(=O)O)NC(=O)[C@H](CC(C)C)NC(=O)[C@H]([C@@H](C)CC)NC(=O)[C@](C)(NC(=O)[C@H](C)NC(C)=O)CN(C)C(=O)OCC=CCOC(=O)N(C)CC[C@@](C)(C(=O)N[C@@H](CCCNC(=N)N)C(=O)N[C@H](C(=O)N[C@@H](Cc2c[nH]c3ccccc23)C(N)=O)C(C)C)NC1=O` [FP0601c, Ac-A-ME-I-L-D-A-H-I-MF-R-V-W-NH2] (Ac-A[dαMeDap(Me)]ILDAHI[αMeDab(Me)]RVW-NH2; linker 2-9 via X2), the pEC50 is above 7.00. With `CC[C@H](C)[C@@H]1NC(=O)[C@H](Cc2c[nH]cn2)NC(=O)[C@H](C)NC(=O)[C@H](CC(=O)O)NC(=O)[C@H](CC(C)C)NC(=O)[C@H]([C@@H](C)CC)NC(=O)[C@](C)(NC(=O)[C@H](C)NC(C)=O)CN(C)C(=O)OCC=CCOC(=O)N2CC[C@@](C(=O)N[C@@H](CCCNC(=N)N)C(=O)N[C@H](C(=O)N[C@@H](Cc3c[nH]c4ccccc34)C(N)=O)C(C)C)(C2)NC1=O` [FP0604c, Ac-A-ME-I-L-D-A-H-I-MB-R-V-W-NH2] (Ac-A[dαMeDap(Me)]ILDAHI[X1]RVW-NH2; linker 2-9 via X2), the pEC50 was above 7.00. The result for `CC[C@H](C)[C@@H]1NC(=O)[C@H](Cc2c[nH]cn2)NC(=O)[C@H](C)NC(=O)[C@H](CC(=O)O)NC(=O)[C@H](CC(C)C)NC(=O)[C@H]([C@@H](C)CC)NC(=O)[C@](C)(NC(=O)[C@H](C)NC(C)=O)CN(C)C(=O)OCC=CCOC(=O)N2CC[C@](C(=O)N[C@@H](CCCNC(=N)N)C(=O)N[C@H](C(=O)N[C@@H](Cc3c[nH]c4ccccc34)C(N)=O)C(C)C)(C2)NC1=O` [FP0605c, Ac-A-ME-I-L-D-A-H-I-MC-R-V-W-NH2] (Ac-A[dαMeDap(Me)]ILDAHI[X3]RVW-NH2; linker 2-9 via X2) reads above 7.00. Under `CC[C@H](C)[C@@H]1NC(=O)[C@H](Cc2c[nH]cn2)NC(=O)[C@H](C)NC(=O)[C@H](CC(=O)O)NC(=O)[C@H](CC(C)C)NC(=O)[C@H]([C@@H](C)CC)NC(=O)C2(NC(=O)[C@H](C)NC(C)=O)CN(C2)C(=O)OCC=CCOC(=O)N(C)CC[C@@](C)(C(=O)N[C@@H](CCCNC(=N)N)C(=O)N[C@H](C(=O)N[C@@H](Cc2c[nH]c3ccccc23)C(N)=O)C(C)C)NC1=O` [FP0611c, Ac-A-MA-I-L-D-A-H-I-MF-R-V-W-NH2] (Ac-A[3Aminoazetidine3carboxyl]ILDAHI[αMeDab(Me)]RVW-NH2; linker 2-9 via X2) stands above 7.00; under `CC[C@H](C)[C@@H]1NC(=O)[C@H](Cc2c[nH]cn2)NC(=O)[C@H](C)NC(=O)[C@H](CC(=O)O)NC(=O)[C@H](CC(C)C)NC(=O)[C@H]([C@@H](C)CC)NC(=O)C2(NC(=O)[C@H](C)NC(C)=O)CN(C2)C(=O)OCC=CCOC(=O)N(C)CCC[C@](C)(C(=O)N[C@@H](CCCNC(=N)N)C(=O)N[C@H](C(=O)N[C@@H](Cc2c[nH]c3ccccc23)C(N)=O)C(C)C)NC1=O` [FP0625c, Ac-A-MA-I-L-D-A-H-I-MI-R-V-W-NH2] (Ac-A[3Aminoazetidine3carboxyl]ILDAHI[dαMeOrn(Me)]RVW-NH2; linker 2-9 via X2), 6.30 to 7.00. The result for `CC[C@H](C)[C@@H]1NC(=O)[C@H](Cc2c[nH]cn2)NC(=O)[C@H](C)NC(=O)[C@H](CCS(C)(=O)=O)NC(=O)[C@H](CC(C)C)NC(=O)[C@H]([C@@H](C)CC)NC(=O)[C@](C)(NC(=O)[C@H](C)NC(C)=O)CCCCCCC=CCOC(=O)N2CC[C@@](C(=O)N[C@@H](CCCNC(=N)N)C(=O)N[C@H](C(=O)N[C@@H](Cc3c[nH]c4ccccc34)C(N)=O)C(C)C)(C2)NC1=O` [FP0629c, Ac-A-R8-I-L-M2O-A-H-I-MB-R-V-W-NH2] reads 5.30 to 6.30; that for `CC[C@H](C)[C@@H]1NC(=O)[C@H](Cc2c[nH]cn2)NC(=O)[C@H](C)NC(=O)[C@H](CC(=O)O)NC(=O)[C@H](CC(C)C)NC(=O)[C@H]([C@@H](C)CC)NC(=O)[C@](C)(NC(=O)[C@H](C)NC(C)=O)CCCCCCC=CCOC(=O)N2CC[C@@](C(=O)N[C@@H](CCCNC(=N)N)C(=O)N[C@H](C(=O)N[C@H](Cc3c[nH]c4ccccc34)C(N)=O)C(C)C)(C2)NC1=O` [FP0630c, Ac-A-R8-I-L-D-A-H-I-MB-R-V-dW-NH2], 6.30 to 7.00. Take `CC[C@H](C)[C@@H]1NC(=O)[C@H](Cc2c[nH]cn2)NC(=O)[C@H](C)NC(=O)[C@H](CC(=O)O)NC(=O)[C@H](CC(C)C)NC(=O)[C@H]([C@@H](C)CC)NC(=O)[C@](C)(NC(=O)[C@H](C)NC(C)=O)CCCCCCC=CCOC(=O)N2CC[C@@](C(=O)N[C@@H](CCCNC(=N)N)C(=O)N[C@H](C(=O)N[C@@](C)(Cc3c[nH]c4ccccc34)C(N)=O)C(C)C)(C2)NC1=O` [FP0631c, Ac-A-R8-I-L-D-A-H-I-MB-R-V-aMeW-NH2]: the pEC50 was 5.30 to 6.30. For the molecule `CC[C@H](C)[C@@H]1NC(=O)[C@H](Cc2c[nH]cn2)NC(=O)[C@H](C)NC(=O)[C@H](CC(=O)O)NC(=O)[C@H](CC(C)C)NC(=O)[C@H]([C@@H](C)CC)NC(=O)[C@](C)(NC(=O)[C@H](C)NC(C)=O)CCCCCCC=CCOC(=O)N2CC[C@@](C(=O)N[C@@H](CCCNC(=N)N)C(=O)N[C@@](C)(CC(C)C)C(=O)N[C@@H](Cc3c[nH]c4ccccc34)C(N)=O)(C2)NC1=O` [FP0633c, Ac-A-R8-I-L-D-A-H-I-MB-R-aMeL-W-NH2], the pEC50 was 5.30 to 6.30. For the molecule `CC[C@H](C)[C@@H]1NC(=O)[C@H](Cc2c[nH]cn2)NC(=O)[C@H](C)NC(=O)[C@H](CC(=O)O)NC(=O)[C@H](CC(C)C)NC(=O)[C@H]([C@@H](C)CC)NC(=O)[C@](C)(NC(=O)[C@H](C)NC(C)=O)CCCCCCC=CCOC(=O)N2CC[C@@](C(=O)N[C@@H](CCCCNC(=N)N)C(=O)N[C@H](C(=O)N[C@@H](Cc3c[nH]c4ccccc34)C(N)=O)C(C)C)(C2)NC1=O` [FP0634c, Ac-A-R8-I-L-D-A-H-I-MB-hArg-V-W-NH2], the pEC50 is above 7.00.

Regarding `CC[C@H](C)[C@@H]1NC(=O)[C@H](Cc2c[nH]cn2)NC(=O)[C@H](C)NC(=O)[C@H](CC(=O)O)NC(=O)[C@H](CC(C)C)NC(=O)[C@H]([C@@H](C)CC)NC(=O)[C@](C)(NC(=O)[C@H](C)NC(C)=O)CCCCCCC=CCOC(=O)N2CC[C@@](C(=O)N[C@@H](CCCCN)C(=O)N[C@H](C(=O)N[C@@H](Cc3c[nH]c4ccccc34)C(N)=O)C(C)C)(C2)NC1=O` [FP0635c, Ac-A-R8-I-L-D-A-H-I-MB-K-V-W-NH2], the negative-log EC50 (pEC50) was 6.30 to 7.00.

Regarding `CC[C@H](C)[C@@H]1NC(=O)[C@H](Cc2c[nH]cn2)NC(=O)[C@H](C)NC(=O)[C@H](CC(=O)O)NC(=O)[C@H](CC(C)C)NC(=O)[C@H]([C@@H](C)CC)NC(=O)[C@](C)(NC(=O)[C@H](C)NC(C)=O)CCCCCCC=CCOC(=O)N2CC[C@@](C(=O)N[C@@H](CCCCNC)C(=O)N[C@H](C(=O)N[C@@H](Cc3c[nH]c4ccccc34)C(N)=O)C(C)C)(C2)NC1=O` [FP0636c, Ac-A-R8-I-L-D-A-H-I-MB-lmeK-V-W-NH2], the negative-log EC50 (pEC50) is 6.30 to 7.00. The result for `CC[C@H](C)[C@@H]1NC(=O)[C@H](Cc2c[nH]cn2)NC(=O)[C@H](C)NC(=O)[C@H](CC(=O)O)NC(=O)[C@H](CC(C)C)NC(=O)[C@H]([C@@H](C)CC)NC(=O)[C@](C)(NC(=O)[C@H](C)NC(C)=O)CCCCCCC=CCOC(=O)N2CC[C@@](C(=O)N[C@@H](CCCNC(=N)N(C)C)C(=O)N[C@H](C(=O)N[C@@H](Cc3c[nH]c4ccccc34)C(N)=O)C(C)C)(C2)NC1=O` [FP0639c, Ac-A-R8-I-L-D-A-H-I-MB-ADMA-V-W-NH2] reads above 7.00. Under `CC[C@H](C)[C@@H]1NC(=O)[C@H](Cc2c[nH]cn2)NC(=O)[C@H](C)NC(=O)[C@H](CC(=O)O)NC(=O)[C@H](CC(C)C)NC(=O)[C@H]([C@@H](C)CC)NC(=O)[C@](C)(NC(=O)[C@H](C)NC(C)=O)CCCCCCC=CCOC(=O)N2CC[C@@](C(=O)N[C@@H](CCCNC(=NC)NC)C(=O)N[C@H](C(=O)N[C@@H](Cc3c[nH]c4ccccc34)C(N)=O)C(C)C)(C2)NC1=O` [FP0640c, Ac-A-R8-I-L-D-A-H-I-MB-SDMA-V-W-NH2] stands above 7.00. The result for `CC[C@H](C)[C@@H]1NC(=O)[C@H](Cc2c[nH]cn2)NC(=O)[C@H](C)NC(=O)[C@H](CC(=O)O)NC(=O)[C@](C)(CC(C)C)NC(=O)[C@H]([C@@H](C)CC)NC(=O)[C@](C)(NC(=O)[C@H](C)NC(C)=O)CCCCCCC=CCOC(=O)N2CC[C@@](C(=O)N[C@@H](CCCNC(=N)N)C(=O)N[C@H](C(=O)N[C@@H](Cc3c[nH]c4ccccc34)C(N)=O)C(C)C)(C2)NC1=O` [FP0644c, Ac-A-R8-I-aMeL-D-A-H-I-MB-R-V-W-NH2] reads 6.30 to 7.00; that for `CC[C@H](C)[C@@H]1NC(=O)[C@H](Cc2c[nH]cn2)NC(=O)C(C)(C)NC(=O)[C@H](CC(=O)O)NC(=O)[C@H](CC(C)C)NC(=O)[C@H]([C@@H](C)CC)NC(=O)[C@](C)(NC(=O)[C@H](C)NC(C)=O)CCCCCCC=CCOC(=O)N2CC[C@@](C(=O)N[C@@H](CCCNC(=N)N)C(=O)N[C@H](C(=O)N[C@@H](Cc3c[nH]c4ccccc34)C(N)=O)C(C)C)(C2)NC1=O` [FP0645c, Ac-A-R8-I-L-D-Aib-H-I-MB-R-V-W-NH2], above 7.00.

As usually defined, the pEC50 is the EC50 on a negative log10 scale, so that one unit is a factor of ten.

Source of the values: patent US11198713B2, “Agents modulating beta-catenin functions and methods thereof” (FOG PHARMACEUTICALS, INC., priority 2017, dated 2021).
